Test results taken from article PMC12647759 (Scientific Reports, 2025).
“And” between values parts separate entries of the source, which are not always exact repeats. Equal entries are not always repeated.

Biological target: T1, human PLCβ4 (Homo sapiens, UniProt Q15147)
T1 construct: expressing the full-length polypeptides of human PLCε, PLCβ4, PLCδ1 and PLCγ1 as FLAG fusions; made in house; host or cells: Expi293F cells
T1 sequence (Q15147 1-1175): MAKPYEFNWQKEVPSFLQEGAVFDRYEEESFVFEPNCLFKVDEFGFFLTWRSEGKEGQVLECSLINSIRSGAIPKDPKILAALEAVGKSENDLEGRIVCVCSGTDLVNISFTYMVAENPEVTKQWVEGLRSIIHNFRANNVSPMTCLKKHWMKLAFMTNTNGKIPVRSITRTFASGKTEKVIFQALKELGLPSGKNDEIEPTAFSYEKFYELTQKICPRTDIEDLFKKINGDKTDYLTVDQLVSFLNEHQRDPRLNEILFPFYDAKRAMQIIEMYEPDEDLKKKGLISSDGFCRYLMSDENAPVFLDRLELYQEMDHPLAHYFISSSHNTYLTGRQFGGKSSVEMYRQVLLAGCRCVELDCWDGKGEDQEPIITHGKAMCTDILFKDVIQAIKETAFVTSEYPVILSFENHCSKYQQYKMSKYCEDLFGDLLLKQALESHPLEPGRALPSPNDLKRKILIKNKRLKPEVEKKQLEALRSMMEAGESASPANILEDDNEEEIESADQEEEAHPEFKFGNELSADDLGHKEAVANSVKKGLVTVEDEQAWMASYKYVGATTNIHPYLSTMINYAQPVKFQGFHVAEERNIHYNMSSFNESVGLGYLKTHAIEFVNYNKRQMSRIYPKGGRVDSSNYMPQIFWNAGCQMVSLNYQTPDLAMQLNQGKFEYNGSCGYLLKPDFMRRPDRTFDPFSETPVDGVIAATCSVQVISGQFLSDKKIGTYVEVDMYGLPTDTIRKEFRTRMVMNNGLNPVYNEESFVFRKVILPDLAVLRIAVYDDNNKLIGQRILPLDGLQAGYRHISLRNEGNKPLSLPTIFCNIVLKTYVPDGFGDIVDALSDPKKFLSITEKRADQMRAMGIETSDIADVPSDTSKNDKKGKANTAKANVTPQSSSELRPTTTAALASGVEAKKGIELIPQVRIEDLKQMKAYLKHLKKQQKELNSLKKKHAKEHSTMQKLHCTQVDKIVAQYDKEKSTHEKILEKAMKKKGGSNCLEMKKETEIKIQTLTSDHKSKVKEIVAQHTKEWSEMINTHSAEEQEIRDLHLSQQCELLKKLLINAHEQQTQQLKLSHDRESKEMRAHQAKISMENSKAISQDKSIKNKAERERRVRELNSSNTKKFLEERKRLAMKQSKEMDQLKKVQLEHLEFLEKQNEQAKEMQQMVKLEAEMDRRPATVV
Experiment: In vitro PLC assay using fluorogenic substrate Compound 1, PLCβ4
Format: biochemical
Conditions: for IC50: purified PLCβ4, fluorogenic substrate Compound 1, read-out: IC50, inhibition of PLCβ4 (hydrolysis of Compound 1)
Description: Ten µl of 2 × substrate solutions (50 mM HEPES pH7.2, 200 mM NaCl, 0.2 mM CaCl2, 0.4 mM DTT, 0.4 µM EDTA, 0.02% gelatin, 0.2% sodium cholate and 60 µM Compound 1) were added to each well of a 384-well plate (CONING #3573) containing 10 µl of purified PLCε (120 ng) and incubated with shaking at 30 °C for 3 h. After terminating the reaction by the addition of 2 µl of 5 mM EDTA, the fluorescence emission was measured at 520 nm with the excitation at 485 nm by a microplate reader (POLARstar Omega-25). For measuring inhibition by compounds for HTS, the reactions were conducted at RIKEN Center for Sustainable Resource Science (CSRS) as described above except that 5 µl of compound solution and 5 µl of purified PLCe (120 ng) were added to each well. Solution dispensing and fluorescence detection were conducted by using an automated dispenser (EDR-384, Biotec) and a hybrid multi-mode microplate reader (Synergy H4, Biotec), respectively. For determination of the IC50 values for ZPT and Zn^2+, the EDTA concentration was reduced to one-tenth to avoid its zinc-chelating effect. For assay of the other PLC classes, the reactions were performed similarly except that PLCβ4 (5 ng), PLCδ1 (0.1 ng) or PLCγ1 (0.3 ng) was used instead of PLCε.

With `CCCCCCOc1ccc2c(c1)Oc1cc(OP(=O)(O)O[C@H]3[C@H](O)[C@@H](O)[C@H](OP(=O)(O)O)[C@@H](O)[C@H]3O)ccc1C21OC(=O)c2ccccc21` (stereo partly shown) [compound 1] as the molecule, how does the IC50 read?
The IC50 was 3.7 µM.

For `O=S(=O)([O-])[O-].[Zn+2]` [ZnSO4], which “inhibitory activity toward PLCβ” value (Compound 1 as substrate, varying concentrations) is on record?
Its value is “without exhibiting any noticeable inhibitory activities”.

How did the IC50 turn out when `COc1ccc2c(c[n+](C)c3c4cc5c(cc4ccc23)OCO5)c1OC` [chelerythrine] was run?
The IC50 was 40 µM.

For `C[n+]1cc2c3c(ccc2c2ccc4cc5c(cc4c21)OCO5)OCO3` [Sanguinarine, sanguinarine], which IC50 is on record?
The IC50 was 80 µM and 79.7 µM.
